Results reported in patent EP4778922A1, “BICYCLIC COMPOUND, AND PREPARATION METHOD THEREFOR AND PHARMACEUTICAL USE THEREOF” (Shanghai Jeyou Pharmaceutical Co., Ltd., priority 2023, dated 2025).
One block for each compound: values may come before it.

Tests used:
LNCaP cells = experiment: Cell proliferation inhibition assay in LNCaP cells (0.2 nM DHT, CellTiter-Glo, 7 days); format: cell-based, human; conditions: Homo sapiens, 168 h
Protocol: • 1. The human prostate cancer cell lines 22RV1 and LNCaP were purchased from ATCC. […] The cell concentration was adjusted to an appropriate concentration (determined based on the results of cell density optimization experiments), and the cells were seeded into a 96-well plate. A 100 µL cell suspension was added, resulting in 3000 cells per well. […] On the second day, for 22Rv1 cells, test compounds at different concentrations were added, and the cells were incubated at 37°C in a 5% CO2 incubator for 7 days; for LNCaP cells, test compounds at different concentrations were added first, and after 1 hour of treatment, 0.2 nM DHT was added. The cells were then incubated at 37°C in a 5% CO2 incubator for 7 days. • 4. After the incubation period, a volume of CellTiter-Glo detection reagent equal to the volume of the culture medium was added to each well. The plate was shaken and mixed thoroughly for 5 minutes, then incubated at room temperature for 10 minutes. Readings were taken using a PerkinElmer EnVision microplate reader. • 5.
The IC50 curve was fitted and the IC50 value was calculated using the software GraphPad Prism 8 with the calculation formula XY-analysis/Nonlinear regression (curve fit)/Dose response-Inhibition/log (inhibitor) vs. response-Variable slope (four parameters).

22RV1 cells = experiment: Cell proliferation inhibition assay in 22RV1 cells (CellTiter-Glo, 7 days); format: cell-based, human; conditions: Homo sapiens
Outline: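 LNCaP and 22RV1 human prostate cancer cells, 3000 per well, exposed to graded compound for 7 days at 37°C, 5% CO2; LNCaP got 0.2 nM DHT 1 h after compound. Viability by CellTiter-Glo luminescence; IC50 from four-parameter variable-slope fit.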

[1] = Mouse pharmacokinetic test; format: in vivo, ICR mice; conditions: plasma, po, 30 mg/kg, PO-30mpk; for Tmax: read-out: Tmax
Protocol: Formulation preparation: The dosing solutions were prepared on the day of administration.
Six healthy male naive ICR mice weighing 25-30 g were selected and divided into two groups (intravenous and oral groups), with three mice in each group, and administered a single dose. […] Feeding was resumed 4 h after administration. Timing was initiated following intravenous and oral administration. […] The collected whole blood was briefly vortexed twice for mixing, placed on wet ice, and centrifuged at 4°C and 8000 rpm for 5 min within 1 h. The supernatant plasma was collected and stored at -80°C until processing and analysis. Table 3: Pharmacokinetics in mice

Compound: CC(C)(c1ccc(-c2cnc(OCc3ccnc(N4CC5(CCS5(=N)=O)C4)n3)cn2)cc1)c1cc(Cl)c(OCCCl)c(C#N)c1 (racemic) [Compound 375]
IC50 (LNCaP cells): 59 nM
IC50 (22RV1 cells; 168 h): 120 nM

Compound: CC(C)(c1ccc(-c2cnc(OCc3ccnc(N4CC(S(=N)(=O)C5CC5)C4)n3)cn2)cc1)c1cc(Cl)c(OCCCl)c(C#N)c1 (single isomer, unassigned) [Compound 350B]
IC50 (LNCaP cells): 500 nM

IC50 (LNCaP cells): 970 nM
Compound: CC(C)(c1ccc(-c2ncc(OCc3ccnc(N4CC(S(C)(=N)=O)C4)n3)cn2)cc1)c1cc(Cl)c(OCCCl)c(C#N)c1 (single isomer, unassigned) [Compound 366A]

IC50 (LNCaP cells): 300 nM
IC50 (22RV1 cells; 168 h): 60 nM
Compound: CC(C)(c1ccc(-c2ccc(OCc3ccnc(N=S4(=O)CCNCC4)n3)cc2)cc1)c1cc(Cl)c(OCCCl)c(C#N)c1 [Compound 108]

IC50 (LNCaP cells): 480 nM
IC50 (22RV1 cells; 168 h): 45 nM
Compound: CC(C)(c1ccc(-c2ccc(OCc3ccnc(N=S4(=O)CCN(CCO)CC4)n3)cc2)cc1)c1cc(Cl)c(OCCCl)c(C#N)c1 [Compound 164]

IC50 (LNCaP cells): 530 nM
IC50 (22RV1 cells; 168 h): 410 nM
Compound: CC(C)(c1ccc(-c2ccc(OCc3ccnc(N=S4(=O)CCN(CC(F)F)CC4)n3)cn2)cc1)c1cc(Cl)c(OCCCl)c(C#N)c1 [Compound 179]

IC50 (LNCaP cells): 460 nM
IC50 (22RV1 cells; 168 h): 38 nM
Compound: CC(C)(c1ccc(-c2ccc(OCc3ccnc(N4CC(N=S(C)(C)=O)C4)n3)cc2)cc1)c1cc(Cl)c(OCCCl)c(C#N)c1 [Compound 195]

Compound: CC(C)(c1ccc(-c2ccc(OCCOc3nccc(N4CC5(COC5)C4)n3)cc2)cc1)c1cc(Cl)c(OCCCl)c(C#N)c1 [Compound 203]
IC50 (LNCaP cells; LNCaP): 440 nM
IC50 (22RV1 cells; 22Rv1, 168 h): 47 nM

IC50 (LNCaP cells): 420 nM
IC50 (22RV1 cells; 168 h): 290 nM
Compound: CC(C)(c1ccc(-c2ccc(OCc3ccnc(N4CC5(COC5)C4)n3)nc2)cc1)c1cc(Cl)c(OCCCl)c(C#N)c1 [Compound 209]

Compound: CC(C)(c1ccc(-c2ccc(COc3ccnc(P(C)(C)=O)n3)cc2)cc1)c1cc(Cl)c(OCCCl)c(C#N)c1 [Compound 253]
IC50 (22RV1 cells; 22Rv1, 168 h): 1060 nM
AUC(0-inf) [1]: 298 µg·h/mL
Cmax [1]: 20800 ng/mL
half-life [1]: 7.3 h
Tmax [1]: 5 h

IC50 (LNCaP cells): 440 nM
IC50 (22RV1 cells; 168 h): 160 nM
Compound: CC(C)(O)CN1CCS(=O)(=Nc2nccc(COc3ccc(-c4ccc(C(C)(C)c5cc(Cl)c(OCCCl)c(C#N)c5)cc4)cc3)n2)CC1 [Compound 254]

Compound: CNS(=O)(=O)C1CN(c2nccc(COc3ccc(-c4ccc(C(C)(C)c5cc(Cl)c(OCCCl)c(C#N)c5)cc4)nc3)n2)C1 [Compound 258]
IC50 (22RV1 cells; 22Rv1, 168 h): 630 nM
AUC(0-inf) [1]: 323 µg·h/mL
Cmax [1]: 39200 ng/mL
half-life [1]: 5.2 h
Tmax [1]: 3 h

IC50 (LNCaP cells): 620 nM
IC50 (22RV1 cells; 168 h): 170 nM
Compound: CC(C)(c1ccc(-c2ccc(OCC3CCC4(CC3)CN(c3ccnc(P(C)(C)=O)n3)C4)cc2)cc1)c1cc(Cl)c(OCCCl)c(C#N)c1 [Compound 260]

IC50 (LNCaP cells): 980 nM
IC50 (22RV1 cells; 168 h): 250 nM
Compound: CC(C)(c1ccc(-c2ccc(OCc3ccnc(N=S4(=O)CCN(CC(F)F)CC4)n3)nc2)cc1)c1cc(Cl)c(OCCCl)c(C#N)c1 [Compound 264]

Compound: CC(C)(c1ccc(-c2ncc(OCc3ccc(-c4cnc(P(C)(C)=O)nc4)cc3)cn2)cc1)c1cc(Cl)c(OCCCl)c(C#N)c1 [Compound 272]
IC50 (22RV1 cells; 22Rv1, 168 h): 650 nM
AUC(0-inf) [1]: 755 µg·h/mL
Cmax [1]: 53200 ng/mL
half-life [1]: 5.8 h
Tmax [1]: 4 h

Compound: C[C@H](Cl)COc1c(Cl)cc(C(C)(C)c2ccc(-c3ccc(OCc4ccnc(P(C)(C)=O)n4)cc3)cc2)cc1C#N [Compound 283]
IC50 (22RV1 cells; 22Rv1, 168 h): 840 nM
AUC(0-inf) [1]: 277 µg·h/mL
Cmax [1]: 18700 ng/mL
half-life [1]: 9.3 h
Tmax [1]: 4 h

IC50 (LNCaP cells): 550 nM
IC50 (22RV1 cells; 168 h): 74 nM
Compound: CC(C)(c1ccc(-c2ccc(OCc3ccnc(N=S4(=O)CCC(F)(F)CC4)n3)cc2)cc1)c1cc(Cl)c(OCCCl)c(C#N)c1 [Compound 288]

IC50 (LNCaP cells): 760 nM
IC50 (22RV1 cells; 168 h): 190 nM
Compound: CC(C)(c1ccc(-c2ccc(OCCN3CCS(=O)(=O)CC3)cc2)cc1)c1cc(Cl)c(OCCCl)c(C#N)c1 [Compound 298]

Compound: CC(C)(c1ccc(-c2ccc(OCC3CC4(C3)CS(=N)(=O)C4)cc2)cc1)c1cc(Cl)c(OCCCl)c(C#N)c1 (stereo not shown) [Compound 308]
IC50 (22RV1 cells; 22Rv1, 168 h): 750 nM
AUC(0-inf) [1]: 186 µg·h/mL
Cmax [1]: 14300 ng/mL
half-life [1]: 4.45 h
Tmax [1]: 3 h

IC50 (LNCaP cells): 270 nM
IC50 (22RV1 cells; 168 h): 1040 nM
Compound: CC(C)(c1ccc(-c2ccc(OCc3ccc(-c4cnc(N5CC6(C5)CS(=N)(=O)C6)nc4)cc3)cc2)cc1)c1cc(Cl)c(OCCCl)c(C#N)c1 [Compound 317]

IC50 (LNCaP cells): 120 nM
IC50 (22RV1 cells; 168 h): 1050 nM
Compound: CC(C)(c1ccc(-c2cnc(OCC34CC(c5cnc(P(C)(C)=O)nc5)(C3)C4)cn2)cc1)c1cc(Cl)c(OCCCl)c(C#N)c1 [Compound 322]

IC50 (LNCaP cells): 230 nM
Compound: CC(C)(c1ccc(-c2cccc3c(OCc4ccnc(P(C)(C)=O)n4)nccc23)cc1)c1cc(Cl)c(OCCCl)c(C#N)c1 [Compound 345]

IC50 (LNCaP cells): 910 nM
Compound: CC(C)(c1ccc(-c2ccc(OCC34CC(c5cnc(P(C)(C)=O)nc5)(C3)C4)cn2)cc1)c1cc(Cl)c(OCCCl)c(C#N)c1 [Compound 367]

IC50 (LNCaP cells): 660 nM
Compound: CC(C)(c1ccc(-c2cnc(OCc3ccnc(N4CC(S(C)(=N)=O)C4)n3)nc2)cc1)c1cc(Cl)c(OCCCl)c(C#N)c1 (stereo not shown) [Compound 372]

IC50 (LNCaP cells): 920 nM
Compound: CC(C)(c1ccc(-c2cnc(OCc3ccc(-c4cnc(P(C)(C)=O)nc4)nc3)nc2)cc1)c1cc(Cl)c(OCCCl)c(C#N)c1 [Compound 374]

IC50 (LNCaP cells): 580 nM
Compound: CC(C)(c1ccc(-c2cnc(COc3ccnc(N4CC(S(C)(=O)=O)C4)n3)nc2)cc1)c1cc(Cl)c(OCCCl)c(C#N)c1 [Compound 383]

IC50 (LNCaP cells): 970 nM
Compound: CC(C)(c1ccc(-c2ccc(Oc3ncc(-c4cnc(CP(C)(C)=O)nc4)cn3)cc2)cc1)c1cc(Cl)c(OCCCl)c(C#N)c1 [Compound 399]

IC50 (LNCaP cells): 690 nM
Compound: CC(C)(c1ccc(-c2ccc(OCc3ccnc(N4CC5(C4)CS(=N)(=O)C5)n3)nc2)cc1)c1cc(Cl)c(OCCCl)c(C#N)c1 [Compound 400]

IC50 (LNCaP cells): 490 nM
Compound: CC(C)(c1ccc(-c2ccc(OCc3ccnc(N4CC5(CCS5(=N)=O)C4)n3)cn2)cc1)c1cc(Cl)c(OCCCl)c(C#N)c1 (stereo not shown) [Compound 404]

IC50 (LNCaP cells): 180 nM
Compound: CC(C)(c1ccc(-c2ccc(OCc3cnc(-c4cnc(P(C)(C)=O)nc4)cn3)cc2)cc1)c1cc(Cl)c(OCCCl)c(C#N)c1 [Compound 408]

IC50 (LNCaP cells): 800 nM
Compound: CC(C)(c1ccc(-c2ccc(OCc3ccnc(N4CC(S(C)(=O)=NC#N)C4)n3)cn2)cc1)c1cc(Cl)c(OCCCl)c(C#N)c1 (stereo not shown) [Compound 413]

IC50 (LNCaP cells): 460 nM
Compound: CC(C)(c1ccc(-c2ccc(OCc3ccnc(N4CC(S(C)(=O)=O)C4)n3)nn2)cc1)c1cc(Cl)c(OCCCl)c(C#N)c1 [Compound 423]

IC50 (LNCaP cells): 940 nM
Compound: CC(C)(c1ccc(-c2ncc(OCc3ccc(-c4cnc(P(C)(C)=O)nc4)nc3)cn2)cc1)c1cc(Cl)c(OCCCl)c(C#N)c1 [Compound 426]

IC50 (LNCaP cells): 830 nM
Compound: CC(C)(c1ccc(-c2ccc(COc3ccnc(P(C)(C)=O)n3)nc2)cc1)c1cc(Cl)c(OCCCl)c(C#N)c1 [Compound 427]

IC50 (LNCaP cells): 470 nM
Compound: CC(C)(c1ccc(-c2ccc3c(c2)C(=O)N(Cc2ccnc(P(C)(C)=O)n2)C3)cc1)c1cc(Cl)c(OCCCl)c(C#N)c1 [Compound 439]

IC50 (LNCaP cells): 950 nM
Compound: CC(=O)c1nccc(COc2cnc(-c3ccc(C(C)(C)c4cc(Cl)c(OCCCl)c(C#N)c4)cc3)cn2)n1 [Compound 441]

IC50 (LNCaP cells): 160 nM
Compound: CC(C)(c1ccc(-c2ncc(OCc3ccc(-c4ccc(P(C)(C)=O)nn4)cc3)cn2)cc1)c1cc(Cl)c(OCCCl)c(C#N)c1 [Compound 455]

IC50 (LNCaP cells): 970 nM
Compound: CC(C)(c1ccc(N2CCCc3cc(OCc4ccnc(P(C)(C)=O)n4)ccc32)cc1)c1cc(Cl)c(OCCCl)c(C#N)c1 [Compound 457]

Compound: CC(C)(c1ccc(-c2ccc(OCc3ccnc(P(C)(C)=O)n3)cc2)nc1)c1cc(Cl)c(OCCCl)c(C#N)c1 [Compound 459]
IC50 (LNCaP cells; LNCaP): 990 nM

IC50 (LNCaP cells): 450 nM
Compound: CC(C)(c1ccc(-c2ccc(OCc3ccnc(N4CC(S(C)(=O)=O)C4)n3)cc2)nc1)c1cc(Cl)c(OCCCl)c(C#N)c1 [Compound 460]

IC50 (LNCaP cells): 580 nM
Compound: CC(C)(c1ccc(-c2ccc(OCc3ccnc(N4CC(S(C)(=N)=O)C4)n3)cc2)nc1)c1cc(Cl)c(OCCCl)c(C#N)c1 (stereo not shown) [Compound 461]

IC50 (LNCaP cells): 680 nM
Compound: CC(C)(c1cc(Cl)c(OCCCl)c(C#N)c1)c1ccc(-c2ccc(OCc3ccnc(P(C)(C)=O)n3)cc2)cn1 [Compound 474]

IC50 (LNCaP cells): 700 nM
Compound: CC(C)(c1cc(Cl)c(OCCCl)c(C#N)c1)c1ccc(-c2ccc(OCc3ccnc(N4CC(S(C)(=N)=O)C4)n3)cn2)cn1 (stereo not shown) [Compound 475]

IC50 (LNCaP cells): 780 nM
Compound: CC(C)(c1cc(Cl)c(OCCCl)c(C#N)c1)c1ccc(-c2ccc(OCc3ccnc(N4CC(S(C)(=O)=O)C4)n3)nc2)cn1 [Compound 478]

IC50 (LNCaP cells): 700 nM
Compound: CC(C)(c1cc(Cl)c(OCCCl)c(C#N)c1)c1ccc(-c2ccc(OCc3ccnc(N4CC(S(C)(=N)=O)C4)n3)nc2)cn1 (stereo not shown) [Compound 479]
